Measurements taken from ChEMBL document CHEMBL1697781, “Assessment of the health effects of chemicals in humans: II. Construction of an adverse effects database for QSAR modeling” (Curr Drug Discov Technol, 2004).

Key:
Details in all cases: human; call rule not given here
Hepatotoxicity [1] = assay: FDA HLAED, alkaline phosphatase increase
Hepatotoxicity [2] = assay: FDA HLAED, liver enzyme composite activity
Hepatotoxicity [3] = assay: FDA HLAED, lactate dehydrogenase (LDH) increase
Hepatotoxicity [4] = assay: FDA HLAED, serum glutamic pyruvic transaminase (SGPT) increase
Hepatotoxicity [5] = assay: FDA HLAED, serum glutamic oxaloacetic transaminase (SGOT) increase
Hepatotoxicity [6] = assay: FDA HLAED, gamma-glutamyl transferase (GGT) increase
For GGT Increase - Index Value in this document: reference of the scale not given here.
For LDH Increase - Index Value in this document: reference of the scale not given here.

Structure (SMILES)	Alkaline Phosphatase Increase - Activity Score (Hepatotoxicity [1])	Alkaline Phosphatase Increase - Index Value (Hepatotoxicity [1])	Alkaline Phosphatase Increase - Number of Reports (Hepatotoxicity [1])	Composite Activity - Active (Hepatotoxicity [2])	Composite Activity - Marginal (Hepatotoxicity [2])	Composite Activity - Score (Hepatotoxicity [2])	LDH Increase - Activity Score (Hepatotoxicity [3])	LDH Increase - Index Value (Hepatotoxicity [3])	LDH Increase - Number of Reports (Hepatotoxicity [3])	SGPT Increase - Activity Score (Hepatotoxicity [4])	SGPT Increase - Index Value (Hepatotoxicity [4])	SGPT Increase - Number of Reports (Hepatotoxicity [4])	SGOT Increase - Activity Score (Hepatotoxicity [5])	SGOT Increase - Index Value (Hepatotoxicity [5])	SGOT Increase - Number of Reports (Hepatotoxicity [5])	GGT Increase - Activity Score (Hepatotoxicity [6])	GGT Increase - Index Value (Hepatotoxicity [6])	GGT Increase - Number of Reports (Hepatotoxicity [6])	Composite Activity - Active (Hepatotoxicity [2]; Liver)	Composite Activity - Marginal (Hepatotoxicity [2]; Liver)	further results
COCCOC(=O)C1=C(C)NC(C)=C(C(=O)OC(C)C)C1c1cccc([N+](=O)[O-])c1 (stereo not drawn) [NIMODIPINE]	Active	17.6	< 4	5	0	Active	Active	23.4	>= 4	Active	29.3	>= 4	Active	23.4	>= 4	Active	17.6	< 4			
COC(=O)C1=C(C)NC(C)=C(C(=O)OCC(C)C)C1c1ccccc1[N+](=O)[O-] (stereo not drawn) [NISOLDIPINE]	Inactive	0	< 4	0	0	Inactive	Inactive	0	< 4	Inactive	1.6	< 4	Inactive	3.2	< 4	Inactive	0	< 4			
O=C1CN(/N=C/c2ccc([N+](=O)[O-])o2)C(=O)N1 [NITROFURANTOIN]	Active	32.8	>= 4				Active	35.6	>= 4	Active	27.4	>= 4	Active	52	>= 4	Active	16.4	>= 4	5	0	Composite Activity - Score (Hepatotoxicity [2]; Liver): Active
CNC(=C[N+](=O)[O-])NCCSCc1csc(CN(C)C)n1 [NIZATIDINE]	Inactive	1.4	>= 4	0	1	Inactive	Inactive	0.5	>= 4	Inactive	2.4	>= 4	Marginally Active	3	>= 4	Inactive	0.8	>= 4			
CC(Cc1ccc(O)c(O)c1)C(C)Cc1ccc(O)c(O)c1 (stereo not drawn) [NORDIHYDROGUAIARETIC ACID]	Inactive	0	< 4	0	0	Inactive	Inactive	0	< 4	Inactive	0	< 4	Inactive	0	< 4	Inactive	0	< 4			
CCn1cc(C(=O)O)c(=O)c2cc(F)c(N3CCNCC3)cc21 [NORFLOXACIN]	Active	6.3	>= 4				Marginally Active	3.7	>= 4	Marginally Active	3	>= 4	Active	5.6	>= 4	Inactive	0	< 4	2	2	Composite Activity - Score (Hepatotoxicity [2]; Liver): Active
